Test results: US5137905A, “Heterocyclic acetylenic amines having central nervous system activity” (The Upjohn Company, priority 1991, dated 1992)
Read-outs that look alike come from different tables or passages of the source.

Key:
HCl-induced writhing = assay: HCl writhing protection (analgesic activity); format: in vivo, CF1 mice; conditions: Mus musculus, sc, read-out: CNS Id (ED50 mg/kg) HCl Writh. Protect
Experimental: For determination of analgesic activity, the test compound was injected subcutaneously into a group of four CF1 mice. Thirty minutes later the mice were injected i.p. with 0.15% HCl, 10 ml./kg. Mice were then placed in plastic boxes and observed for fifteen minutes to record the number of animals failing to writhe.

[1] = test system: oxotremorine-induced body tremor; assay: Oxotremorine antagonist assay (body tremor); format: in vivo, mice; conditions: Mus musculus, ip; read-out: Oxot. Antagonist Tremor (ED50)
Experimental: Oxotremorine antagonist assays were performed on groups of six mice weighing 18-22 g. Each was dosed intraperitoneally with the test compound prepared in 0.25% methylcellulose and were placed in individual cages. Twenty minutes later the mice were injected subcutaneously with 0.5 mg/kg of oxotremorine dissolved in saline. Ten minutes later the mice were scored for body tremor. Doses of the compound under study began at 100 mg/kg and were decreased at a 0.5 log interval until no responders were obtained.

CNS cholinergic receptor [2] = assay: CNS cholinergic receptor binding, oxotremorine M ligand; conditions: tritiated oxotremorine M; read-out: CNS Cholinergic Receptor Binding Assays K1 Oxotremorine
[3] = test system: amnesia produced by scopolamine; assay: Antagonism of scopolamine-induced amnesia, passive avoidance; format: in vivo; conditions: i.p. test compound, 1 mg/kg s.c. scopolamine hydrobromide, mouse step through passive avoidance
Description: For antagonism of amnesia produced by scopolamine a one trial, step through passive avoidance paradigm was used. In this procedure a mouse was placed on a square platform adjoining a darkened chamber. The mouse could enter the chamber through a hole above the platform. Following placement on the platform, the mouse was enclosed by a clear plexiglas cover which mildly restricted movement, limiting the animal to turning around and partial rearing. A sliding door was opened after this, exposing the entrance to the chamber. A timer was started at the same time the door was opened, in order to record latency to enter the chamber. Upon complete entry into the darkened box, the door was closed behind the mouse and a 1 mA, 2 sec, direct current shock applied to the feet of the mouse through the grid floor. The mouse was immediately removed from the chamber and returned to a 24 hr group holding cage.
Drug testing involved intraperitoneal injection of the test compound followed 15 min later by subcutaneous injection of 1 mg/kg scopolamine hydrobromide. […] The latency for each mouse to enter the chamber was recorded, with a cut-off at 180 sec.
Median group latencies to enter the chamber during both training and testing were recorded and a Wilcoxon rank sum test applied to data comparing the parallel "scopolamine only" group with all drug combination groups on testing. […]

CNS cholinergic receptor [4] = conditions: tritiated quinuclidine benzylate (QNB); read-out: CNS Cholinergic Receptor Binding Assays K1 QNB
cholinergic mechanism = conditions: extremely low doses; cited from earlier work
[5] = versus prior oxotremorine compounds; U.S. Pat. No. 3,925,411; cited from earlier work
[6] = ED50, s.c. in CF1 mice, 30 min before i.p. 0.15% HCl

| Structure (SMILES) | ED50 (HCl-induced writhing; [6]) [mg/kg] | ED50 [1] [mg/kg] | Ki (CNS cholinergic receptor [2]) [nM] | antagonism of amnesia produced by scopolamine [3] | Ki (CNS cholinergic receptor [4]) [nM] | tremors and spasticity in laboratory animals (cholinergic mechanism) | ED50 (HCl-induced writhing) [mg/kg] | half life [5] |
| --- | --- | --- | --- | --- | --- | --- | --- | --- |
| Cn1ccn(CC#CCN2CCCC2)c1=O [Compound 36, 1,3-Dihydro-1-methyl-3-[4-(1-pyrrolidinyl)-2-butynyl]-2H-imidazol-2-one] | 1.3 | > 10 | 7 | the most active | 510 |  |  |  |
| CC(=O)N1CCC[C@H]1C#CCN(C)C [Compound 51D, (S)-1-Acetyl-2-[3-(dimethylamino)-1-propynyl]pyrrolidine] | > 50 | > 100 | 10000 |  | > 10000 |  |  |  |
| CN(C)CC#CCN1CCN(C)C1=O [Compound 10, 1-[4-(1-Dimethylamino)-2-butynyl]-3-methyl-2-imidazolidinone] | > 13 | > 10 | 4.5 |  | 180 |  |  |  |
| CN1CCN(CC#CCN2CCCC2)C1=O [Compound 1, 1-Methyl-3-[4-(1-pyrrolidinyl)-2-butynyl]-2-imidazolidinone] | 0.2 | > 3 | 2.7 |  | 180 |  |  |  |
| CN(C)C(=O)N1CCC[C@@H]1C#CCN1CCCC1 [Compound 51E, (R)-N,N-Dimethyl 2-[3-(1-pyrrolidinyl)-1-propynyl]-1-pyrrolidinecarboxamide] | > 50 | 25 | 12 |  | 43 |  |  |  |
| CC(=O)N1CCC[C@@H]1C#CCN(C)C [Compound 51C, (R)-1-Acetyl-2-[3-(dimethylamino)-1-propynyl]pyrrolidine] | > 50 | > 100 | 130 |  | > 10000 |  |  |  |
| CC(C)(C)OC(=O)N1CCC[C@H]1C#CCN1CCCC1 [Compound 49B, (S)-t-Butyl 2-[3-(1-pyrrolidinyl)-1-propynyl]-1-pyrrolidinecarboxylate] | > 50 | > 100 | 3500 |  | > 10000 |  |  |  |
| O=C1CCCN1CC#CCN1CCCC1 [oxotremorine, 1-[4-(1-pyrrolidinyl-2-butynyl)-2-pyrrolidinone]] |  |  |  |  |  | induces tremors and spasticity in laboratory animals |  |  |
| NC(=O)N1CCC[C@@H]1C#CCN1CCCC1 [Compound 51H, (R)-2-[3-(1-pyrrolidinyl)-1-propynyl]-1-pyrrolidinecarboxamide] | > 50 | > 100 | 440 |  | > 10000 |  |  |  |
| CN(C)CC#C[C@H]1CCCN1C(=O)OC(C)(C)C [Compound 49C, (R)-t-Butyl 2-[3-(dimethylamino)-1-propynyl]-1-pyrrolidinecarboxylate] | > 50 | > 100 | 44 |  | > 10000 |  |  |  |
| CC1(C)CNC(=O)N1CC#CCN1CCCC1 [Compound 16, 5,5-Dimethyl-1-[4-(1-pyrrolidinyl)-2-butynyl]-2-imidazolidinone] | 25 | > 100 | 290 |  | 1000 |  |  |  |
| CN(C)CC#C[C@H]1CCCN1 [Compound 50C, (R)-N,N-dimethyl-3-(2-pyrrolidinyl)-2-propyn-1-amine] |  | > 100 | 970 |  | > 1000 |  | > 50 |  |
| O=C1N(CC#CCN2CCCC2)CCN1c1ccccc1 [Compound 20, 1-Phenyl-3-[4-(1-pyrrolidinyl)-2-butynyl]-2-imidazolidinone] | > 25 | > 30 | 69 |  | 170 |  |  |  |
| CC(C)(C)OC(=O)N1CCC[C@@H]1C#CCN1CCCC1 [Compound 49A, (R)-t-Butyl 2-[3-(1-pyrrolidinyl)-1-propynyl]-1-pyrrolidine-carboxylate] | 13 | 100 | 20 |  | 430 |  |  |  |
| CCOC(=O)N1CCC[C@@H]1C#CCN1CCCC1 [Compound 51L, (R)-Ethyl 2-[3-(1-pyrrolidinyl)-1-propynyl]-1-pyrrolidinecarboxylate] | > 50 | > 100 | 50 |  | 760 |  |  |  |
| CC(C)(C)OC(=O)N1CCN(CC#CCN2CCCC2)C1=O [Compound 8, t-Butyl 2-oxo-3-[4-(1-pyrrolidinyl)-2-butynyl]-1-imidazolidinecarboxylate] | 25 | > 100 | 130 |  | 2200 |  |  |  |
| CN(C)CC#C[C@@H]1CCCN1 [Compound 50D, (S)-N,N-dimethyl-3-(2-pyrrolidinyl)-2-propyn-1-amine] | > 50 | > 100 | > 10000 |  | > 10000 |  |  |  |
| CN(C)C(=O)N1CCC[C@H]1C#CCN1CCCC1 [Compound 51F, (S)-N,N-Dimethyl 2-[3-(1-pyrrolidinyl)-1-propynyl]-1-pyrrolidinecarboxamide] | > 50 | > 100 | 460 |  | 2000 |  |  |  |
| C#CCN1CCN(CC#CCN2CCCC2)C1=O [Compound 14, 1-(2-Propynyl)-3-[4-(1-pyrrolidinyl)-2-butynyl]-2-imidazolidinone] | > 25 | > 30 | 200 |  | 2300 |  |  |  |
| CC1CN(CC#CCN2CCCC2)C(=O)N1C(=O)OC(C)(C)C (stereo not drawn) [Compound 17, t-Butyl 5-methyl-2-oxo-3-[4-(1-pyrrolidinyl)-2-butynyl]-1-imidazolidinecarboxylate] | > 25 | > 100 | 810 |  | 2700 |  |  |  |
| CC1CN(CC#CCN2CCCC2)C(=O)N1 (stereo not drawn) [Compound 15, 4-Methyl-1-[4-(1-pyrrolidinyl)-2-butynyl]-2-imidazolidinone] | > 13 | > 10 | 140 |  | 1000 |  |  |  |
| O=C1CCCN1CCC#CCN1CCCC1 [N-(5-pyrrolidino-3-pentynyl)-pyrrolidin-2-one] |  |  |  |  |  |  |  | increased half life over prior oxotremorine compounds |
| COC(=O)N1CCC[C@H]1C#CCN1CCCC1 [Compound 51K, (S)-Methyl 2-[3-(1-pyrrolidinyl)-1-propynyl]-1-pyrrolidinecarboxylate] | > 50 | 97 | 130 |  | 220 |  |  |  |
